# Results reported in patent US5571799A, “(2'-5') oligoadenylate analogues useful as inhibitors of host-v5.-graft response” (Basco, Ltd., priority 1994, dated 1996).
# “Also recorded” adds a separate entry of the source.
# Key:
# [1] = test system: snake venom phosphodiesterase; experiment: Stability to the action of snake venom phosphodiesterase; format: in vitro ADME
# Protocol: Determination of (2'-5')oligoadenylates and analogues stability to the action of snake venom phosphodiesterase
# Upon entering an organism 2'-5'A3 and the analogues are quickly hydrolyzed to monomeric compound(s). Prior to administration of 2'-5'A3 analogues in vivo to animal, it was considered necessary to determine their stability towards snake venom phosphodiesterase in comparison to the parent 2'-5'A3.
# The solution of 3 μg of the snake venom phosphodiesterase (Boehringer Mannheim cat. No. 108260) in 30 μl of 0.1 M Tris HCl buffer, containing 0.002 M MgCl2 (pH 8.78) is added to the solution of 4-5·10^-7 M trimer in 100 μl of the same buffer. The solution was left standing at 20° C. At regular intervals, 10 μl samples were taken, heated at 90° C. for 1 minute and preparative thin layer chromatography was performed on the Silufole™ plates, using a 7:1:2 mixture of isopropanol:aqueous ammonia:water.
# The spot, corresponding to the initial trimer, was cut out, the substance was extracted with 2 ml of 0.5% solution of the dodecylsulfate sodium salt solution for 2 hours, and the optical density of the solution was determined at 260 nm.
# [2] = test system: T-suppressors; experiment: Immune system of monkeys: T-suppressors, flow cytofluorografic analysis; format: in vivo, Macaque Rh. monkeys; details: for T-suppressor: single IV 25 μg/kg; for T-suppressors: single IV 50 μg/kg
# Protocol: (§1) Immunosuppressive activity of the prototype 2'-5'A3 and two analogues (2'-5')A2 Ar-epoxy and (2'-5')A2 A^l-epoxy were investigated in monkeys. The experiments were performed on 4 year-old Macaque Rh. monkeys. The levels of the principal subpopulations of T-lymphocytes, IgA, IgG, IgM and the amount of α- and γ-interferon and interleukin II after administration (2'-5')olygoadenylate and its analogies at the concentration of 50 and 25 μg/kg of the body weight was investigated.
# (§2) FLOW CYTOFLUOROGRAFIC ANALYSIS OF LYMPHOCYTE SUBSETS
# (§3) Blood samples (100 μl of whole blood) were placed into a 12×17 tube. To these cells 20 μl of purified monoclonal antibodies were added with specificity for human cytotoxic/suppressor cells anti-Leu-2a (CD8), human helper/inducer anti-Leu-3a (CD4) and FITC conjugated monoclonal antibodies with specificity for natural killer cells-anti-Leu11c (CD16) (Becton Dickinson, San Jose). After 30 minutes incubation on ice, the cells were washed once and 20 μl of goat-antimouse chain phycoerythrin (Sigma P1286) conjugate were added to the tube with anti-Leu-2a and anti-Leu-3a monoclonal antibodies.
# (§4) After erythrocyte lysing with FACS lysing solution (Becton Dickinson, San Jose) the cells were analyzed on FACScan flow cytometer (Becton Dickinson, San Jose) with scatter gate set on lymphocyte fraction.
# [3] = test system: T-helpers; experiment: T-helpers in monkeys after kidney transplantation; format: in vivo, Macaque Rh. monkeys; details: for T-helpers: 50 μg/kg IV, 2 days pre-op. 30
# Protocol: as §2, §3, §4
# (§5) The experiments were performed on 4 year-old Macaque Rh. monkeys. Each cohort consisted of 3 animals. […] The results of the experiments were evaluated clinically: by the presence or absence of urination from the ureterocutaneostoma.
# (§6) After intravenous anesthesia with Ketalar®, an extraperitoneal access to the left kidney was performed through layer by layer cuts to the left lumbar region. The kidney was excised from the surrounding tissues. A clamp was applied to the vessel limb; the artery, the vein and the ureter each were prepared for anastomosis separately. The kidney was excised and transferred for hypothermal conservation in Collins' solution.
# (§7) The donor kidney was transplanted into the recipient. […] anastomosis was performed: the graft arteries and veins attached to the appropriate recipient kidney vessels through plastic tubes. The kidney having been resuscitated by in blood flow, acquired the normal color and turgor. Additional hemostasis in the wound was performed. Ureterocutaneostomy was performed, which was followed by applying layer-upon-layer sutures on the wound and its aseptic dressing.
# (§8) The monkeys were narcotized by means of the intravenous anesthesia with Ketalar® and subjected to medial laparotomy from the xiphoid down to the pubic joint. Access to the left Kidney was made extraperitoneally. The kidney was teased from the surrounding tissues. A clamp was put on the vessel limb; the artery, the vein and the ureter were dressed separately; the kidney was cut and transferred for hypothermal conservation in Collins' solution.
# (§9) The internal iliac artery and the external iliac vein were extracted extra-peritoneally, immobilized and prepared for anastomosis. The donor kidney was transferred to the recipient. Vessel anastomosis was performed: the graft arteries were anastomosed with the internal iliac artery according to the end-to-end method and the graft veins were anastomosed with the external iliac vein according to the end-to-side method. The kidney having been engaged in blood flow, acquired a normal color and turgor. Bleeding on the line of the arterial anastomosis was stopped by making additional sutures. Ureterocutaneostomy was performed. The abdominal cavity was lavaged with the solution of disodium carbenicillin. Layer-upon-layer sutures on the wound were applied. Aseptic dressing was performed.
# (§10) During our experiments we have divided monkeys into two groups, three monkeys to each group. For the first group (2'-5')A2 Ar-epoxy was administered intravenously at concentration of 50 μg/kg two days before the operation and at the second, sixth, and twelfth day after the operation and then every sixth day. […] After transplantation kidney functions were restored within 10 hours.
# (§11) The administration schedule of (2'-5')A2 Ar-epoxy was modified slightly for the second group of monkeys. The preparation was injected two days before the operation and every other day at a concentration of 50 μg/kg during the entire post-transplantation period. […] The number of T-helpers dropped correspondingly from 37% to 7%. […] During the entire postoperative period, this activity tendency continues.
# [4] = test system: T-suppressors; experiment: T-suppressors in monkeys after kidney transplantation; format: in vivo, Macaque Rh. monkeys; details: for T-suppress: 50 μg/kg IV, 2 days pre-op. 44
# Protocol: as §2, §3, §4, §5, §6, §7, §8, §9, §10, §11
# [5] = test system: T-killers and T-helpers; experiment: Immunosuppressive activity in vivo in monkeys; design: species or system Macaque Rh. monkeys
# Protocol: as §1, with “The” for “Immunosuppressive activity of the prototype 2'-5'A3 and two analogues (2'-5')A2 Ar-epoxy and (2'-5')A2 A^l-epoxy were investigated in monkeys. The”
# as §2, §3, §4
substance,measurement,setting,value
"Adenylyl (2'-5')adenylyl (2'-5')-9-(2,3-anhydro-β-D-ribofuranosyl) adenine disodium salt [(2'-5')A2 Ar-epoxy]",T 1/2 (time for optical density of initial trimer to decrease by 50%),"[1]; 20° C., 0.1 M Tris HCl, 0.002 M MgCl2, pH 8.78",16.0 h
same,stability / resistance to phosphodiesterase,"[1]; in words, disodium salt",significantly more resistant towards hydrolysis by phosphodiesterase; also recorded: more resistant to phosphodiesterase than (2'-5')A2 A^l-epoxy
same,resistance to snake venom phosphodiesterase relative to prototype 2'-5'A3,[1]; vs 2'-5'A3,35 fold
same,"effect on T-suppressors, in words",[2]; 25 and 50 μg/kg IV,suppresses the number of T-suppressor cells
same,T-suppressor,[2]; day 0 (baseline),47%
same,T-suppressor,[2]; day 1,40%
same,T-suppressor,[2]; day 2,21%
same,T-suppressor,[2]; day 4,11%
same,T-suppressor,[2]; day 8,11%
same,T-suppressor,[2]; day 12,14%
same,T-suppressor,[2]; day 21,46%
same,T-suppressors,[2]; day 0 (baseline),43%
same,T-suppressors,[2]; day 1,31%
same,T-suppressors,[2]; day 2,19%
same,T-suppressors,[2]; day 4,12%
same,T-suppressors,[2]; day 8,7.4%
same,T-suppressors,[2]; day 12,13%
same,T-suppressors,[2]; day 21,44%
same,T-helpers,[3]; day 1 post-op.,8%
same,T-helpers,[3]; day 5 post-op.,39.9%
same,T-helpers,[3]; day 8 post-op.,32%
same,T-helpers,[3]; day 13 post-op.,34.7%
same,T-helpers,[3]; day 18 post-op.,14.5%
same,number of T-helpers,"[3]; second group, 50 μg/kg every other day, 7 days after surgery, from 37%",7%
same,T-suppress,[4]; day 1 post-op.,40.6%
same,T-suppress,[4]; day 5 post-op.,44%
same,T-suppress,[4]; day 8 post-op.,47%
same,T-suppress,[4]; day 13 post-op.,47.7%
same,T-suppress,[4]; day 18 post-op.,57.5%
same,"effect on T-suppressors in transplanted animals, in words","[4]; post-transplantation, 50 μg/kg, disodium salt",stimulates the number of T-suppressor cells in transplanted monkeys; also recorded: stimulates somewhat the number of T-suppressors
same,quantity of T-suppressors,"[4]; second group, 50 μg/kg every other day, 7 days after surgery, presurgical 44%",49%
same,"immunosuppressive activity, in words","[5]; monkeys, IV, disodium salt",suppresses significantly the number of T-lymphocytes in blood after only 48 hours; also recorded: strong immunosuppressive activity specifically against T-killers and T-helpers; also recorded: suppressed more actively the number of T-killer and T-helpers
same,increase of the quantity of the subpopulation of T-helpers and T-killers,"[5]; single IV injection (Table 10 experiment, 500 μg/kg)",about 50%
same,suppression of the number of T-killers and T-helpers,"[5]; single IV injection, 48 hours, monkeys",50%
